K1 data for one molecule are collected here from PMC11526092 (2024).

This experiment deals with h1_(TTAA)2 (DNA, hairpin) CGTTAATTAACGCCCCCGTTAATTAACG
Nature of the experiment: SPR, steady state, two-site fit. To be noted: Na+ 100 mM (NaCl), 1 mM EDTA; 10 mM MES pH 6.25, 0.005% P20, 25 °C; site 1 of 2; error about ±10%. For orientation: Surface plasmon resonance follows binding to a sensor surface in real time, without labels.

Molecules are shown by their SMILES.

The molecule `N=C(N)c1ccc(OCCCCCOc2ccc(C(=N)N)cc2)cc1` displayed a K1 of 680 nM.
